This passage reports IC50 results from US10745382B2 (BRISTOL-MYERS SQUIBB COMPANY, priority 2015, dated 2020).

T1 sequence (Q9NZQ7 with tags, fused parts or gaps): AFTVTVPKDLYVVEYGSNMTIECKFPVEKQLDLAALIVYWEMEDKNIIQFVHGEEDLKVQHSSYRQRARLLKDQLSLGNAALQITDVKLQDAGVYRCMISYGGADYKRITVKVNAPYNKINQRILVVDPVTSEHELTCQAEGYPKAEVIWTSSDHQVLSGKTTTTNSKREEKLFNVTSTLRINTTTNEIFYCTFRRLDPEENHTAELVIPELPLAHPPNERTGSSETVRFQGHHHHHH

The assay has as its target T1, PD-1/PD-L1 (Homo sapiens, UniProt Q9NZQ7).
T1 construct: made in house; host or cells: HEK293T
Briefly: PD-1/PD-L1 Homogenous Time-Resolved Fluorescence (HTRF) binding assay. Conditions: PD-L1-His 10 nM, PD-1-Ig 20 nM; value given as range class; read-out: Range or IC50. In short, it runs like this: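 Detection by europium cryptate anti-Ig plus APC anti-His (1 nM and 20 nM final) with HTRF signal. Buffer was dPBS, 0.1% BSA, 0.05% Tween-20.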
A general note: In TR-FRET formats the signal depends on donor and acceptor labels being close together.
In the case of `CC(CO)(CO)NCc1cc(Cl)c(OCc2cccc(-c3cccc(OCCCN4CC[C@@H](O)C4)c3Cl)c2Cl)cc1OCc1cc(Cl)ccc1Cl` [Example 2112, (R)-2-((5-chloro-4-((2,2′-dichloro-3′-(3-(3-hydroxypyrrolidin-1-yl)propoxy)-[1,1′-biphenyl]-3-yl)methoxy)-2-((2,5-dichlorobenzyl)oxy)benzyl)amino)-2-methylpropane-1,3-diol], the concentration for half-maximal inhibition (IC50) (as a rule, the midpoint of a concentration-inhibition curve) was 0.21 to 10 nM.

With `Cc1c(COc2cc(OCc3cncc(C#N)c3)c(CN(CC3CC3)C(CO)CO)cc2Cl)cccc1-c1cccc(OCCCN2CC[C@@H](O)C2)c1Cl` [Example 2113, (R)-5-((4-chloro-5-((2′-chloro-3′-(3-(3-hydroxypyrrolidin-1-yl)propoxy)-2-methyl-[1,1′-biphenyl]-3-yl)methoxy)-2-(((cyclopropylmethyl)(1,3-dihydroxypropan-2-yl)amino)methyl)phenoxy)methyl)nicotinonitrile], the IC50 was in the range of 0.21 to 10 nM.

Turning to `Cc1c(COc2cc(OCc3cncc(C#N)c3)c(CN(CC3CC3)C(C)(CO)CO)cc2Cl)cccc1-c1cccc(OCCCN2CC[C@@H](O)C2)c1Cl` [Example 2114, (R)-5-((4-chloro-5-((2′-chloro-3′-(3-(3-hydroxypyrrolidin-1-yl)propoxy)-2-methyl-[1,1′-biphenyl]-3-yl)methoxy)-2-(((cyclopropylmethyl)(1,3-dihydroxy-2-methylpropan-2-yl)amino)methyl)phenoxy)methyl)nicotinonitrile], the IC50 lay in the range of 0.21 to 10 nM.

Consider `Cc1c(COc2cc(OCc3cncc(C#N)c3)c(CN3CCOC[C@H]3CO)cc2Cl)cccc1-c1cccc(OCCCN2CC[C@@H](O)C2)c1Cl` [Example 2115, 5-((4-chloro-5-((2′-chloro-3′-(3-((R)-3-hydroxypyrrolidin-1-yl)propoxy)-2-methyl-[1,1′-biphenyl]-3-yl)methoxy)-2-(((R)-3-(hydroxymethyl)morpholino)methyl)phenoxy)methyl)nicotinonitrile], for which the IC50 lay in the range of 0.21 to 10 nM.

As to `Cc1c(COc2cc(OCc3cncc(C#N)c3)c(CNC[C@H](O)CO)cc2Cl)cccc1-c1cccc(OCCCO)c1Cl` [Example 2116, (S)-5-((4-chloro-5-((2′-chloro-3′-(3-hydroxypropoxy)-2-methyl-[1,1′-biphenyl]-3-yl)methoxy)-2-(((2,3-dihydroxypropyl)amino)methyl)phenoxy)methyl)nicotinonitrile], the IC50 fell in the range of 0.21 to 10 nM.

Regarding `Cc1c(COc2cc(OCc3cncc(C(N)=O)c3)c(CNC[C@H](O)CO)cc2Cl)cccc1-c1cccc(OCCCO)c1Cl` [Example 2117, (S)-5-((4-chloro-5-((2′-chloro-3′-(3-hydroxypropoxy)-2-methyl-[1,1′-biphenyl]-3-yl)methoxy)-2-(((2,3-dihydroxypropyl)amino)methyl)phenoxy)methyl)nicotinamide], the IC50 was 0.21 to 10 nM.

As to `Cc1c(COc2cc(OCc3cncc(C#N)c3)c(CNC(C)(CO)CO)cc2Cl)cccc1-c1cccc(OCCC(=O)NC[C@H](O)CO)c1Cl` [Example 2118, (S)-3-((2-chloro-3′-((2-chloro-5-((5-cyanopyridin-3-yl)methoxy)-4-(((1,3-dihydroxy-2-methylpropan-2-yl)amino)methyl)phenoxy)methyl)-2′-methyl-[1,1′-biphenyl]-3-yl)oxy)-N-(2,3-dihydroxypropyl)propanamide], the IC50 lay within 0.21 to 10 nM.

In the case of `Cc1c(COc2cc(OCc3cncc(C#N)c3)c(CNC(C)(CO)CO)cc2Cl)cccc1-c1cccc(OC[C@H]2CCN(CC(O)CO)C2)c1Cl` (stereo partly drawn) [Example 2119, 5-((4-chloro-5-((2′-chloro-3′-(((3S)-1-(2,3-dihydroxypropyl)pyrrolidin-3-yl)methoxy)-2-methyl-[1,1′-biphenyl]-3-yl)methoxy)-2-(((1,3-dihydroxy-2-methylpropan-2-yl)amino)methyl)phenoxy)methyl)nicotinonitrile], the IC50 fell in the range of 0.21 to 10 nM.
